Laboratory results taken from paper PMC9699072 (Molecules, 2022).
Several values for one entry are separate records, joined by “and”; a condition that tells them apart may be missing. Identical values can stand only once.

What was measured:
Type in all cases: biochemical
[1] = ABTS radical cation scavenging (decolorization) assay; conditions: mean ± SEM, n = 3; for ABTS TEAC (Trolox equivalent antioxidant capacity): 1 h incubation, relative to Trolox; for IC50: 1 h, read-out: ABTS IC50 (compound concentration required for 50% reduction of the ABTS radical-cation) (converted)
Protocol: The ABTS assay is based on the direct quenching of the ABTS cation radical (ABTS^•+) by antioxidants. The assay is carried out by spectrophotometric determination of a decrease in absorbance of a stable dark green ABTS^•+ solution after its interaction with an antioxidant compound [56]. The measurements were performed as previously described in detail. The results are expressed as TEAC values (Trolox equivalent antioxidant capacity) and IC50 values (compound concentration required for 50% reduction of the ABTS radical).
Radical scavenging activity of the compounds was assessed using the ABTS radical cation (ABTS^•+) decolorization assay with some modifications. ABTS (2,2′-azinobis-(3-ethylbenzothiazoline-6-sulfonic acid)) was purchased from Tokyo Chemical Industry Co., Ltd. (Tokyo, Japan), and potassium persulfate (dipotassium peroxodisulfate), Trolox (6-hydroxy-2,5,7,8-tetramethylchroman-2-carboxylic acid), and HPLC-grade ethanol and DMSO were obtained from Sigma-Aldrich (Saint Louis, MO, USA). Aqueous solutions were prepared using deionized water. All test compounds were dissolved in DMSO.
The solution of cation radical ABTS^•+ was produced by incubation of an aqueous solution of 7 mM ABTS and 2.45 mM potassium persulfate solution in equal quantities for 12–16 h at room temperature in the dark. Radical scavenging capacity of the compounds was analyzed by mixing 10 μL of compound with 240 μL of ABTS^•+ working solution in ethanol (100 μM final concentration). Data were given for 1 h of incubation of compounds with ABTS^•+. The reduction in absorbance was measured spectrophotometrically at 734 nm using an xMark microplate UV/VIS microplate spectrophotometer (Bio-Rad, Hercules, CA, USA).
Ethanol blanks were run in each assay. Values were obtained from three replicates of each sample and three independent experiments.
Standard antioxidant Trolox was used as a reference compound. Antioxidant capacity as Trolox equivalent (TEAC) values was determined as the ratio between the slopes obtained from the linear correlation of the ABTS radical absorbance with the concentrations of tested compounds and Trolox. Quercetin was used as a positive control. For the test compounds that reduced ABTS^•+ absorbance by more than 60% at 100 µM, we also determined the IC50 values (the compound concentration required for a 50% reduction of the ABTS radical). The compounds were tested in the concentration range of 0.5–400 µM.

[2] = biological target: T1, equine serum butyrylcholinesterase (BChE) (Equus caballus, UniProt P81908); experiment: Inhibition of BChE (Ellman's colorimetric assay); conditions: ± SEM, n = 3, 10 min incubation 25 °C
T1 construct: equine serum butyrylcholinesterase (BChE, EC 3.1.1.8); purchased Sigma-Aldrich (Saint Louis, MO, USA); host or cells: equine serum
T1 sequence (P81908 whole entry): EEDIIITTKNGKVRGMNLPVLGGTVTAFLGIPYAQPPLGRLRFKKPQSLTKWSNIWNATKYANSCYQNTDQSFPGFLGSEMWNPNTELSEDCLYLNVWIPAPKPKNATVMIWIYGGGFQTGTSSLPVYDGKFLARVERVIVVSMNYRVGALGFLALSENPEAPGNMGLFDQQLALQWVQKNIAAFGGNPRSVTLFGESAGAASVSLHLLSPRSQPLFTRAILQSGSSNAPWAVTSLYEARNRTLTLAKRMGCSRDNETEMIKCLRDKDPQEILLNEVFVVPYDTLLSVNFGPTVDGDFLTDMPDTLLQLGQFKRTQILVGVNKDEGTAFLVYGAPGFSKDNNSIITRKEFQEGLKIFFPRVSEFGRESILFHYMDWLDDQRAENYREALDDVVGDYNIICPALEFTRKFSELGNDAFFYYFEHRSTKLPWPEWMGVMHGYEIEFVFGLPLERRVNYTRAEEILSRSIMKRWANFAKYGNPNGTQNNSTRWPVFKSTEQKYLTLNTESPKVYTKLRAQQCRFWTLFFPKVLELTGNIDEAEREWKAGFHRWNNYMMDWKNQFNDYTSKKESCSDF
Text: (§1) Given the available literature data on the ability of pyrazole derivatives to inhibit acetylcholinesterase (AChE) and human carboxylesterase-1 (CES), we performed an investigation of the esterase profile for new compounds 1a–j and 4a–j, including an evaluation of their inhibitory effect on the standard enzymes set: human erythrocyte AChE, equine serum butyrylcholinesterase (BChE), and porcine liver CES (Table 2). The applicability of this set of enzymes was shown by us earlier.
(§2) Human erythrocyte acetylcholinesterase (AChE, EC 3.1.1.7), equine serum butyrylcholinesterase (BChE, EC 3.1.1.8), porcine liver carboxylesterase (CES, EC 3.1.1.1), acetylthiocholine iodide (ATCh), butyrylthiocholine iodide (BTCh), 4-nitrophenol acetate (4-NPA), and 5,5′-dithio-bis-(2-nitrobenzoic acid) (DTNB) were purchased from Sigma-Aldrich (Saint Louis, MO, USA).
(§3) All the kinetic experiments were performed under standard conditions, according to the protocol of IPAC RAS for a reversible inhibitors study.
(§4) Ellman’s colorimetric assay was used to measure AChE and BChE activity in 0.1 M K/Na phosphate buffer at pH 7.5, 25 °C [86]. Final concentrations of reactants were 0.33 mM DTNB, 0.02 unit/mL of AChE or BChE, and 1 mM of substrate (ATCh or BTCh, respectively). Reagent blanks consisted of reaction mixtures without enzyme to assess non-enzymatic hydrolysis of substrates. Porcine liver CES activity was assessed colorimetrically in 0.1 M K/Na phosphate buffer with pH 8.0 at 25 °C, by measuring the absorbance of 4-nitrophenol at 405 nm. Final enzyme and substrate (4-NPA) concentrations were 0.02 unit/mL and 1 mM, respectively. Reagent blanks included all constituents except enzyme.
(§5) Test compounds were dissolved in DMSO. Reaction mixtures contained a final DMSO concentration of 2% (v/v). Enzyme inhibition was first assessed at a single concentration of 20 µM for each compound after a 10 min incubation at 25 °C in three separate experiments. Compounds inhibiting the enzyme by more than 30% were then selected for determination of the IC50 (inhibitor concentration resulting in 50% inhibition of control enzyme activity). […] Substrate was then added, and residual enzyme activity relative to an inhibitor-free control was measured using a FLUOStar Optima microplate reader (LabTech, Ortenberg, Germany).

[3] = biological target: T2, human erythrocyte AChE (Homo sapiens, UniProt P22303); experiment: Inhibition of AChE (Ellman's colorimetric assay); conditions: read-out: AChE % inhibition at 20 μM
T2 construct: Human erythrocyte acetylcholinesterase (AChE, EC 3.1.1.7); purchased Sigma-Aldrich (Saint Louis, MO, USA); host or cells: human erythrocytes
T2 sequence (P22303 32-617 isoform P22303-2 limits assumed): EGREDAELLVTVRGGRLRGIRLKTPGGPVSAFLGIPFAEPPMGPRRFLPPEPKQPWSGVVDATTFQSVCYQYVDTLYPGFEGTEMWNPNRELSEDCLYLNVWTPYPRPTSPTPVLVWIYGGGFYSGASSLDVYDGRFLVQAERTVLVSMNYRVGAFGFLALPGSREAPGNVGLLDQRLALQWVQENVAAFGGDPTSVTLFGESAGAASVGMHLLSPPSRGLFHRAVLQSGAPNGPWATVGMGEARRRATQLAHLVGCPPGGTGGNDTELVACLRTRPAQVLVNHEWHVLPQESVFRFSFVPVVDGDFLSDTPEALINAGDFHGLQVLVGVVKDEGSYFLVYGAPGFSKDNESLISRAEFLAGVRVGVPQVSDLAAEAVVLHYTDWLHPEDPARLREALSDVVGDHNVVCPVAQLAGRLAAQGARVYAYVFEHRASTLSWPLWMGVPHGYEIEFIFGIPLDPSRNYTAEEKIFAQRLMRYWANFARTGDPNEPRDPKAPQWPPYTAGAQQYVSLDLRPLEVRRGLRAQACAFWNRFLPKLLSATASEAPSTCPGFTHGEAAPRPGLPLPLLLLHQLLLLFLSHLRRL
Text: as §1, §2, §3, §4, §5

[4] = tested on: porcine liver CES; experiment: Inhibition of CES (4-nitrophenol acetate hydrolysis); conditions: 20 μM, ± SEM, n = 3, 10 min incubation 25 °C
Text: as §1, §2, §3, §4, §5

[5] = FRAP (ferric reducing antioxidant power) assay; conditions: mean ± SEM, n = 3; 1 h, 37 °C, pH 3.6
Protocol: The FRAP (ferric reducing antioxidant power) assay measures the ability of antioxidants to reduce the ferric 2,4,6-tripyridyl-s-triazine complex [Fe(TPTZ)2]^3+ to the intensely blue ferrous complex [Fe(TPTZ)2]^2+ in an acidic medium. The measurements were performed as previously described in detail. The results are expressed as TE (Trolox equivalents).
The FRAP (ferric reducing antioxidant power) assay measures the ability of antioxidants to reduce the ferric 2,4,6-tripyridyl-s-triazine complex [Fe (TPTZ)2]^3+ to the intensely blue ferrous complex [Fe (TPTZ)2]^2+ (λ = 593 nm) in acidic medium. 2,4,6-Tris(pyridin-2-yl)-1,3,5-triazine (TPTZ), FeCl3·6H2O, Trolox, quercetin and DMSO were obtained from Sigma-Aldrich Chemical Co. (St. Louis, MO, USA). The FRAP reagent contained 2.5 mL of 10 mM TPTZ solution in 40 mM HCl, 2.5 mL of 20 mM FeCl3·6H2O water solution, and 25 mL of 0.3 M acetate buffer (pH 3.6). Aliquots of 10 µL of the test compound solution in DMSO (0.5 mM) were mixed with 240 µL of FRAP reagent, and the absorbance of the mixture was measured spectrophotometrically (FLUOStar OPTIMA microplate spectrophotometer (BMG Labtech, Ortenberg, Germany)) at 600 nm after 1 h incubation at 37 °C against a blank. Trolox was used as a reference compound. Quercetin was used as a positive control. A calibration curve with linear formula y = 0.03x (R^2 = 0.998, p < 0.0001) was prepared for Trolox solutions in DMSO at a range of 2.5–100 µM, and the results are expressed as Trolox equivalents (TE), the values calculated as the ratio of the concentrations of Trolox and the test compound, resulting in the same effect.

[6] = ORAC-FL (oxygen radical absorbance capacity) assay; conditions: mean ± SEM, n = 3; 2 h; 10 μM compound and Trolox
Text: In the oxygen radical absorbance capacity (ORAC-FL) assay, 2,2′-azobis-(2-methylpropionamidine) dihydrochloride (AAPH) is used as a free peroxyl radical generator, and fluorescein (FL) is used as a fluorescent probe. The method is based on measuring the decrease in the intensity of fluorescence with time, which characterizes the degree of decay of the fluorescent probe under the influence of peroxyl radicals. In the presence of antioxidants, the degree of decay of the fluorescent probe decreases and, accordingly, the fluorescence intensity increases. The results are expressed as TE (Trolox equivalents).
The ORAC assay utilizes a biologically relevant radical source, 2,2′-azobis(2-amidinopropane) dihydrochloride (AAPH)-derived peroxyl radicals. Thus, it is a more physiologically relevant assay than ABTS and FRAP.
The oxygen radical absorbance capacity (ORAC) was determined by the ability of compounds to protect fluorescein (FL) from peroxyl radicals that are generated by AAPH according to the known method with minor variations. The reaction was carried out at 37 °C in black 96-well plates (SPL life sciences), and the final volume of the reaction mixture was 200 µL per well. The fluorescence was recorded by Tecan M1000 PRO microplate reader (Switzerland) at 485 nm excitation and 520 nm emission.
The 0.7 mM fluorescein sodium salt stock solution in PBS pH 7.4 (137 mM sodium chloride, 2.7 mM potassium chloride, and 10 mM phosphate buffer) was prepared and stored at 4–5 °C no longer than one month. An aliquot of the fluorescein stock solution was further diluted with PBS immediately before each assay to yield a 70 nM working solution. The 133 mM AAPH solution in PBS was prepared immediately before use. The test compounds and Trolox standard were dissolved in DMSO to 400 μM. The final concentration was 10 μM for all of the samples.
The blank was composed of 15 μL PBS pH 7.4, 5 μL DMSO (final concentration: 2.5% (v/v)), 120 μL FL, and 60 μL AAPH, and it was included in each assay. PBS pH 7.4 (15 μL), antioxidant (the test compound or Trolox, 5 μL), and FL (120 μL, final concentration: 42 nM) solutions were placed in a black 96-well microplate and were pre-incubated for 15 min at 37 °C. AAPH solution (60 μL, final concentration 40 mM) was then added rapidly using a multichannel pipette. The fluorescence was recorded every minute for 2 h. A Trolox standard curve was also obtained in each assay. All reactions were carried out in quadruplicate, and two to four independent assays were performed for each sample.
Antioxidant curves (fluorescence vs. time) were first normalized to the curve of the blank (without antioxidant) corresponding to the same assay, and the net AUC corresponding to a sample was calculated by subtracting the AUC corresponding to the blank. The ORAC value was obtained by dividing the latter curve by the Trolox curve obtained in the same assay at 10 μM concentrations of compounds and Trolox. Final ORAC values, Trolox equivalents (TE), were expressed as μmol test compounds per μmol Trolox, where the value of TE for Trolox was taken as 1. Data were expressed as means ± SEM.

[7] = ORAC-FL (oxygen radical absorbance capacity) assay; conditions: mean ± SEM, n = 3; 2 h; read-out: ORAC-FL IC50 (compound concentration required for 50% reduction of peroxyl radical) (converted)

SMILES	ABTS TEAC (Trolox equivalent antioxidant capacity) [1]	inhibition at 20 µM [2] [%]	inhibition at 20 µM [3] [%]	CES % inhibition at 20 μM [4] [%]	FRAP TE (Trolox equivalent) [5] [TE]	ORAC-FL TE (Trolox equivalent) [6]	IC50 [1] [µM]	IC50 [7] [µM]
O=C1/C(=N\O)C(C(F)(F)F)=NN1c1ccccc1 [1a]	0.035 ± 0.002 (n.d.) TEAC							
O=C1/C(=N\O)C(C(F)(F)C(F)(F)F)=NN1c1ccccc1 [1b]	0.03 ± 0.002 (n.d.) TEAC	16.1 ± 1.4	11.9 ± 0.9	8.2 ± 1.3	0.06 ± 0.01			
O=C1/C(=N\O)C(C(F)(F)C(F)(F)C(F)(F)C(F)(F)F)=NN1c1ccccc1 [1c]	0.04 ± 0.004 (n.d.) TEAC	5.3 ± 1	11.5 ± 1.8	7.8 ± 1.4	0.06 ± 0.01			
CC1=NN(c2ccccc2)C(=O)/C1=N\O [1d]	0.16 ± 0.02 (n.d.) TEAC	6.6 ± 1.3	4.9 ± 1.3			1.07 TE and 1.07 ± 0.17 TE		
O=C1NN=C(C(F)(F)C(F)F)/C1=N/O [1f]	0.15 ± 0.007 (n.d.) TEAC	4.7 ± 1	6.8 ± 1.2	3.5 ± 0.9				
O=C1NN=C(C(F)(F)C(F)(F)C(F)(F)F)/C1=N/O [1h]	0.19 ± 0.008 (n.d.) TEAC		5.3 ± 1.3	6.6 ± 1.4		2.37 ± 0.09 TE		
O=C1NN=C(C(F)(F)C(F)(F)C(F)(F)C(F)(F)F)/C1=N/O [1i]	0.2 ± 0.01 (n.d.) TEAC					2.41 ± 0.08 TE		
Cl.Nc1c(C(F)(F)C(F)F)n[nH]c1O.O [4f, 4-Amino-3-(1,1,2,2-tetrafluoroethyl)-1H-pyrazol-5-ol hydrate hydrochloride]	0.50 ± 0.02 TEAC		17.3 ± 1.5	17.5 ± 1.4	0.62 ± 0.01		33.2	
O=c1c(O)c(-c2ccc(O)c(O)c2)oc2cc(O)cc(O)c12 [Quercetin, reference compound]	1.20 ± 0.11 TEAC				4.99 ± 0.02	5.41 ± 0.08 TE	13.8	
Cc1c(C)c2c(c(C)c1O)CCC(C)(C(=O)O)O2 (stereo not drawn) [Trolox, 6-hydroxy-2,5,7,8-tetramethylchroman-2-carboxylic acid, reference compound]	1.0 TEAC				1.0	1.0 TE	20.1	23.6
